PubChem BioAssay (NCI)
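Values below derive from 48-hour exposures of cells grown in 96-well plates, with endpoints linearly interpolated between the two concentrations bracketing the appropriate inhibition level. GI50: concentration for 50% inhibition of growth. The concentration for full growth arrest is given as TGI.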

Assays:
Assay in all cases: NCI tumour cell line growth inhibition, 48 h; in the data active means GI50 below about 0.43 µM; inactive means the rest
[1] = system: MALME-3M melanoma
[2] = system: MCF7 breast
[3] = system: T-47D breast
[4] = system: DU-145 prostate
[5] = system: SK-OV-3 ovarian
[6] = system: MDA-MB-435
[7] = system: 786-0 renal
[8] = system: HL-60(TB) leukemia
[9] = system: OVCAR-8 ovarian
[10] = system: TK-10 renal
[11] = system: LOX IMVI melanoma
[12] = system: SW-620 colon
[13] = system: KM12 colon
[14] = system: UO-31 renal
[15] = system: OVCAR-5 ovarian
[16] = system: U251 CNS
[17] = system: SK-MEL-5 melanoma
[18] = system: MOLT-4 leukemia
[19] = system: ACHN renal
[20] = system: K-562 leukemia
[21] = system: UACC-257 melanoma
[22] = system: RXF 393 renal
[23] = system: SN12C renal
[24] = system: IGROV1 ovarian
[25] = system: OVCAR-4 ovarian
[26] = system: SF-295 CNS
[27] = system: HOP-62 NSCLC
[28] = system: M14 melanoma
[29] = system: MDA-MB-231 breast
[30] = system: CCRF-CEM leukemia
[31] = system: A549 NSCLC
[32] = system: A498 renal
[33] = system: HS 578T breast
[34] = system: CAKI-1 renal
[35] = system: OVCAR-3 ovarian
[36] = system: NCI/ADR-RES ovarian
[37] = system: SF-268 CNS
[38] = system: PC-3 prostate
[39] = system: SNB-19 CNS
[40] = system: BT-549 breast
[41] = system: NCI-H460 lung
[42] = system: NCI-H23 lung
[43] = system: NCI-H226 lung
[44] = system: HT29 colon
[45] = system: SK-MEL-28 melanoma
[46] = system: SNB-75 CNS
[47] = system: COLO 205 colon
[48] = system: HCT-15 colon
[49] = system: NCI-H522 lung
[50] = system: HCT-116 colon
[51] = system: SK-MEL-2 melanoma
[52] = system: UACC-62 melanoma
[53] = system: RPMI-8226 leukemia
[54] = system: SR leukemia
[55] = system: SF-539 CNS
[56] = system: HCC-2998 colon

CC(C)=CC(=O)OC1C(CO)OC(Oc2cc(O)c3c(=O)cc(-c4ccc(O)c(O)c4)oc3c2)C(OC2OC(C)C(O)C(O)C2O)C1O (configuration not stated)
inactive: GI50 [1] > 100 µM | GI50 [2] > 100 µM | GI50 [3] > 100 µM | GI50 [4] > 100 µM | GI50 [5] > 100 µM | GI50 [6] > 100 µM | GI50 [7] > 100 µM | GI50 [8] > 100 µM | GI50 [9] > 100 µM | GI50 [10] > 100 µM | GI50 [11] > 100 µM | GI50 [12] > 100 µM | GI50 [13] > 100 µM | GI50 [14] > 100 µM | GI50 [15] > 100 µM | GI50 [16] > 100 µM | GI50 [17] > 100 µM | GI50 [18] > 100 µM | GI50 [19] > 100 µM | GI50 [20] > 100 µM | GI50 [21] > 100 µM | GI50 [22] > 100 µM | GI50 [23] > 100 µM | GI50 [24] > 100 µM | GI50 [25] > 100 µM | GI50 [26] > 100 µM | GI50 [27] > 100 µM | GI50 [28] > 100 µM | GI50 [29] > 100 µM | GI50 [30] > 100 µM | GI50 [31] > 100 µM | GI50 [32] > 100 µM | GI50 [33] > 100 µM | GI50 [34] > 100 µM | GI50 [35] > 100 µM | GI50 [36] > 100 µM | GI50 [37] > 100 µM | GI50 [38] > 100 µM | GI50 [39] > 100 µM | GI50 [40] > 100 µM | GI50 [41] > 100 µM | GI50 [42] > 100 µM | GI50 [43] > 100 µM | GI50 [44] > 100 µM | GI50 [45] > 100 µM | GI50 [46] > 100 µM | GI50 [47] > 100 µM | GI50 [48] > 100 µM | GI50 [49] > 100 µM | GI50 [50] > 100 µM | GI50 [51] > 100 µM | GI50 [52] > 100 µM | GI50 [53] 85.6 µM | GI50 [54] 50 µM | GI50 [55] > 100 µM | GI50 [56] > 100 µM
98.8 µM: TGI [54]
> 100 µM: TGI [1] | TGI [2] | TGI [3] | TGI [4] | TGI [5] | TGI [6] | TGI [7] | TGI [8] | TGI [9] | TGI [10] | TGI [11] | TGI [12] | TGI [13] | TGI [14] | TGI [15] | TGI [16] | TGI [17] | TGI [18] | TGI [19] | TGI [20] | TGI [21] | TGI [22] | TGI [23] | TGI [24] | TGI [25] | TGI [26] | TGI [27] | TGI [28] | TGI [29] | TGI [30] | TGI [31] | TGI [32] | TGI [33] | TGI [34] | TGI [35] | TGI [36] | TGI [37] | TGI [38] | TGI [39] | TGI [40] | TGI [41] | TGI [42] | TGI [43] | TGI [44] | TGI [45] | TGI [46] | TGI [47] | TGI [48] | TGI [49] | TGI [50] | TGI [51] | TGI [52] | TGI [53] | TGI [55] | TGI [56]
